Experimental findings from patent EP4361157A1, “FUSED TETRACYCLIC COMPOUND, PREPARATION METHOD THEREFOR AND APPLICATION THEREOF IN MEDICINE” (Jiangsu Hengrui Pharmaceuticals Co., Ltd., priority 2021, dated 2022) are described below.

Each structure is given as a SMILES string.

One assay relates to AGS cells. Nature of the assay: Inhibition of ERK phosphorylation of AGS cells (HTRF method). The class given is cell-based. The conditions noted are these: phosphorylated ERK/total ERK ratio, 1 h incubation. As to the method:
AGS cells (Nanjing Cobioer, CBP60476) were cultured in RPMI1640 (Hyclone, SH30809.01) complete medium containing 10% fetal bovine serum. On the first day of the experiment, the AGS cells were seeded into a 96-well plate with complete medium at a density of 40,000 cells/well to form 190 µL of cell suspension per well. The plate was incubated overnight in a cell incubator at 37 °C with 5% CO2.
The next day, 10 µL of serially-diluted test compound prepared from the complete medium was added to each well. The final concentrations of the compound were 9 concentration points obtained by 5-fold serial dilution from 10 µM. A blank control containing 0.5% DMSO was set. The well plate was incubated in a cell incubator at 37 °C with 5% CO2 for 1 h. After completion of incubation, the 96-well cell culture plate was taken out, the medium was removed by pipetting, 200 µL PBS (Shanghai BasalMedia Technologies Co., Ltd., B320) was added to each well, and the cells were washed once. PBS was removed by pipetting, 50 µL of lysis buffer (Cisbio, 64KL1FDF) containing a blocking solution (blocking reagent, Cisbio, 64KB1AAC) was added to each well, and the well plate was lysed on a shaker for 40 min at room temperature with shaking. After lysis, the lysate was pipetted and mixed well, 16 µL of lysate was transferred to two HTRF 96-well assay plates (Cisbio, 66PL96100) per well, and then 4 µL of premixed phosphorylated ERK1/2 antibody solution (Cisbio, 64AERPEG) or 4 µL of premixed total ERK1/2 antibody solution (Cisbio, 64NRKPEG) was added to these two plates. The microplate was sealed with a sealing membrane, centrifuged for 1 min in a microplate centrifuge, and incubated overnight at room temperature in the dark. On the third day, the fluorescence values at an excitation wavelength of 337 nm and at emission wavelengths of 665 nm and 620 nm were read using an ENVISION multifunctional microplate reader (PerkinElmer, ENVISION).
Table 1. Inhibitory activity data for ERK phosphorylation of AGS cells
For orientation: Time-resolved FRET reads energy transfer from a long-lived donor to a nearby acceptor.

In the next assay the test system is GP2d cells. In words: Inhibition of 3D proliferation of GP2d cells (CellTiter-Glo 3D). The class given is cell-based. The conditions noted are these: 120 h incubation. As to the method: GP2d cells (Nanjing Cobioer, CBP60010) were cultured in a complete medium, namely DMEM/high glucose medium (Hyclone, SH30243.01) containing 10% fetal bovine serum (Corning, 35-076-CV). On the first day of the experiment, GP2d cells were seeded into a 96-well low adsorption plate (Corning, CLS7007-24EA) with complete medium at a density of 1,000 cells/well to form 90 µL of cell suspension per well. The plate was centrifuged at 2,000 rpm for 5 min at room temperature and then incubated overnight in a cell incubator at 37 °C with 5% CO2.
The next day, 10 µL of serially-diluted test compound prepared from the complete medium was added to each well. The final concentrations of the compound of GP2d cells were 9 concentration points obtained by 3-fold serial dilution from 1 µM, and the final concentrations of the compound of AGS cells were 9 concentration points obtained by 3-fold serial dilution from 10 µM. A blank control containing 0.5% DMSO was set. The well plate was incubated in a cell incubator at 37 °C with 5% CO2 for 120 h. On the seventh day, the 96-well cell culture plate was taken out, 50 µL CellTiter-Glo® 3D reagent (Promega, G9682) was added into each well, the plate was shaken at room temperature for 25 min, pipetted and mixed well, 50 µL of the solution was transferred into a white impermeable 96-well plate (PE, 6005290), and the luminescence signal values were read using a multifunctional microplate reader (PerkinElmer, ENVISION).
Table 2. Inhibitory activity data for 3D proliferation of AGS and GP2d cells

Broadly, the IC50 is the concentration that inhibits the measured activity by half. As for `CCc1cccc2cc(O)cc(-c3cc4nc(OC[C@@]56CCCN5C[C@H](F)C6)nc5c4c(n3)OCC3C4CCC(CN53)N4)c12` (mixture of isomers) [Diastereomeric (1:1) mixture of 2-p1 and 2-p2], the IC50 with AGS cells (Homo sapiens, AGS) amounted to 6.6 nM; in the assay on GP2d cells, 19.9 nM.

Regarding `Oc1cc(-c2cc3nc(OC[C@@]45CCCN4C[C@H](F)C5)nc4c3c(n2)OCC2C3CCC(CN42)N3)c2c(F)cccc2c1` (single isomer, unassigned) [Diastereomeric (1:1) mixture of 1-p1 and 1-p2], the IC50 in the assay on AGS cells stood at 94.1 nM.

On to `CCc1cccc2cc(O)cc(-c3nc4c5c(nc(OC[C@@]67CCCN6C[C@H](F)C7)nc5c3F)N3CC5CCC(N5)C3CO4)c12` (single isomer, unassigned) [Diastereomeric (1:1) mixture of 4-p1 and 4-p2], for which the IC50 with AGS cells came out at 1.35 nM.

On to `CCc1cccc2cc(O)cc(-c3cc4c5c(nc(OC[C@@]67CCCN6C[C@H](F)C7)nc5c3F)N3CC5CCC(N5)C3CO4)c12` (single isomer, unassigned) [Diastereomeric (1:1) mixture of 11-p1 and 11-p2], for which the IC50 stood at 15.6 nM in the assay on AGS cells and 62.5 nM in the assay with GP2d cells.

With `CCc1cccc2cc(O)cc(-c3nc4c5c(nc(OC[C@@]67CCCN6C[C@H](F)C7)nc5c3F)N3C[C@@H]5CC[C@@H](N5)[C@@H]3CO4)c12` [Example 4-p2, 5-Ethyl-4-((5aR,6R,9S)-1-fluoro-12-(((2R,7aS)-2-fluorotetrahydro-1H-pyrrolizin-7a(5H )-yl)methoxy)-5a,6,7,8,9,10-hexahydro-5H-4-oxa-3,10a,11,13,14-pentaaza-6,9-methanonaphtho[1,8-ab]heptalen-2-yl)naphthalen-2-ol], the IC50 with AGS cells (Homo sapiens, AGS) was 86.5 nM.

In the case of `CCc1c(F)ccc2cc(O)cc(-c3nc4c5c(nc(OC[C@@]67CCCN6C[C@H](F)C7)nc5c3F)N3C[C@@H]5CC[C@@H](N5)[C@@H]3CO4)c12` [Example 9-p2, 5-Ethyl-6-fluoro-4-((5aR,6R,9S)-1-fluoro-12-(((2R,7aS)-2-fluorotetrahydro-1H-pyrrolizin-7a(5H)-yl)methoxy)-5a,6,7,8,9,10-hexahydro-5H-4-oxa-3,10a,11,13,14-pentaaza-6,9-methanonaphtho[1,8-ab]heptalen-2-yl)naphthalen-2-ol], the IC50 with AGS cells (Homo sapiens, AGS) came out at 60.4 nM.

In the case of `Oc1cc(Cl)c(C(F)(F)F)c(-c2nc3c4c(nc(OC[C@@]56CCCN5C[C@H](F)C6)nc4c2F)N2C[C@H]4CC[C@H](N4)[C@H]2CO3)c1` [Example 14-p1, 3-Chloro-5-((5aS,6S,9R)-1-fluoro-12-(((2R,7aS)-2-fluorotetrahydro-1H-pyrrolizin-7a(5 H)-yl)methoxy)-5a,6,7,8,9,10-hexahydro-5H-4-oxa-3,10a,11,13,14-pentaaza-6,9-methanonaphtho[1,8-ab]heptalen-2-yl)-4-(trifluoromethyl)phenol], the IC50 in the assay with AGS cells (Homo sapiens, AGS) amounted to 20.2 nM.

`CCc1c(F)ccc2cc(O)cc(-c3nc4c5c(nc(OCC6(CN7CCC[C@@H]7CO)CC6)nc5c3F)N3C[C@H]5CC[C@H](N5)[C@H]3CO4)c12` [Example 15, 5-Ethyl-6-fluoro-4-((5aS,6S,9R)-1-fluoro-12-((1-(((R)-2-(hydroxymethyl)pyrrolidin-1-yl)methyl)cyclopropyl)methoxy)-5a,6,7,8,9,10-hexahydro-5H-4-oxa-3,10a,11,13,14-pentaaza-6,9-methanonaphtho[1,8-ab]heptalen-2-yl)naphthalen-2-ol]: the IC50 with AGS cells (Homo sapiens, AGS) stood at 13.4 nM; in the assay with GP2d cells it was 7.2 nM.

Turning to `CCc1c(F)ccc2cc(O)cc(-c3nc4c5c(nc(OCC6(CN7CC=C[C@@H]7CO)CC6)nc5c3F)N3C[C@H]5CC[C@H](N5)[C@H]3CO4)c12` [Example 16, 5-Ethyl-6-fluoro-4-((5aS,6S,9R)-1-fluoro-12-((1-(((R)-2-(hydroxymethyl)-2,5-dihydro-1 H-pyrrol-1-yl)methyl)cyclopropyl)methoxy)-5a,6,7,8,9,10-hexahydro-5H-4-oxa-3,10a, 1 1,13,14-pentaaza-6,9-methanonaphtho[1,8-ab]heptalen-2-yl)naphthalen-2-ol], the 50% inhibitory concentration (IC50) with AGS cells (Homo sapiens, AGS) is 11.6 nM; in the assay on GP2d cells, 10.1 nM.

Consider `CCc1c(F)ccc2cc(O)cc(-c3nc4c5c(nc(OCC6(CN7CC=C[C@H]7CO)CC6)nc5c3F)N3C[C@H]5CC[C@H](N5)[C@H]3CO4)c12` [Example 18, 5-Ethyl-6-fluoro-4-((5aS,6S,9R)-1-fluoro-12-((1-(((S)-2-(hydroxymethyl)-2,5-dihydro-1 H-pyrrol-1-yl)methyl)cyclopropyl)methoxy)-5a,6,7,8,9,10-hexahydro-5H-4-oxa-3,10a, 1 1,13,14-pentaaza-6,9-methanonaphtho[1,8-ab]heptalen-2-yl)naphthalen-2-ol], for which the half-maximal inhibitory concentration (IC50) is 10.5 nM with AGS cells (Homo sapiens, AGS) and 39.3 nM in the assay on GP2d cells.

Consider `CCc1c(F)ccc2cc(O)cc(-c3nc4c5c(nc(OCC6(CN7C[C@@H]8C[C@@H]8[C@@H]7CO)CC6)nc5c3F)N3C[C@H]5CC[C@H](N5)[C@H]3CO4)c12` [Example 19, 5 -Ethyl-6-fluoro-4-((5aS,6S,9R)-1-fluoro-12-((1-(((1S,2R,5R)-2-(hydroxymethyl)-3-azabicyclo[3.1.0]hex-3-yl)methyl)cyclopropyl)methoxy)-5a,6,7,8,9,10-hexahydro-5H-4-oxa-3,10a,11,13,14-pentaaza-6,9-methanonaphtho[1,8-ab]heptalen-2-yl)naphthalen-2-ol], for which the IC50 was found to be 31.1 nM in the assay with AGS cells (Homo sapiens, AGS) and 28.9 nM in the assay with GP2d cells.

As to `CCc1c(F)ccc2cc(O)cc(-c3nc4c5c(nc(OCC6(CN7C[C@@H]8C[C@@H]8[C@H]7CO)CC6)nc5c3F)N3C[C@H]5CC[C@H](N5)[C@H]3CO4)c12` [Example 20, 5 -Ethyl-6-fluoro-4-((5aS,6S,9R)-1-fluoro-12-((1-(((1S,2S,5R)-2-(hydroxymethyl)-3-azabicyclo[3.1.0]hex-3-yl)methyl)cyclopropyl)methoxy)-5a,6,7,8,9,10-hexahydro-5H-4-oxa-3,10a,11,13,14-pentaaza-6,9-methanonaphtho[1,8-ab]heptalen-2-yl)naphthalen-2-ol], the IC50 in the assay on AGS cells (Homo sapiens, AGS) worked out at 14 nM; with GP2d cells, 8.8 nM.

In the case of `CCc1c(F)ccc2cc(O)cc(-c3nc4c5c(nc(OCC6(CN7C[C@H]8C[C@H]8[C@@H]7CO)CC6)nc5c3F)N3C[C@H]5CC[C@H](N5)[C@H]3CO4)c12` [Example 21, 5 -Ethyl-6-fluoro-4-((5aS,6S,9R)-1-fluoro-12-((1-(((1R,2R,5S)-2-(hydroxymethyl)-3-azabicyclo[3.1.0]hex-3-yl)methyl)cyclopropyl)methoxy)-5a,6,7,8,9,10-hexahydro-5H-4-oxa-3,10a,11,13,14-pentaaza-6,9-methanonaphtho[1,8-ab]heptalen-2-yl)naphthalen-2-ol], the half-inhibitory concentration (IC50) was 8.1 nM with AGS cells (Homo sapiens, AGS) and 14.7 nM with GP2d cells.

As for `CCc1c(F)ccc2cc(O)cc(-c3nc4c5c(nc(OCC6(CN7CCC[C@H]7COC(=O)N(C)C)CC6)nc5c3F)N3C[C@H]5CC[C@H](N5)[C@H]3CO4)c12` [Example 25, ((S)-1-((1-((((5aS,6S,9R)-2-(8-ethyl-7-fluoro-3-hydroxynaphthalen-1-yl)-1-fluoro-5a,6,7,8,9,10-hexahydro-5H-4-oxa-3,10a,11,13,14-pentaaza-6,9-methanonaphtho[1,8-ab]heptalen-12-yl)oxy)methyl)cyclopropyl)methyl)pyrrolidin-2-yl)methyl dimethylcarbamate], the IC50 came to 23.5 nM in the assay with AGS cells (Homo sapiens, AGS) and 48.5 nM with GP2d cells.
